Patent publication US20110150769A1, “IDENTIFICATION AND USE OF COMPOUNDS FOR TREATING PERSISTENT PAIN” (priority 2009, published 2011)
Entries after “also recorded” stand apart in the source; their conditions may differ.

Experiments:
rat MrgprC = target: T1, rat MrgprC (Rattus norvegicus, UniProt Q8R4G1); settings: Han et al, 2002, Lembo et al.; cited from earlier work
T1 sequence (Q8R4G1 1-323): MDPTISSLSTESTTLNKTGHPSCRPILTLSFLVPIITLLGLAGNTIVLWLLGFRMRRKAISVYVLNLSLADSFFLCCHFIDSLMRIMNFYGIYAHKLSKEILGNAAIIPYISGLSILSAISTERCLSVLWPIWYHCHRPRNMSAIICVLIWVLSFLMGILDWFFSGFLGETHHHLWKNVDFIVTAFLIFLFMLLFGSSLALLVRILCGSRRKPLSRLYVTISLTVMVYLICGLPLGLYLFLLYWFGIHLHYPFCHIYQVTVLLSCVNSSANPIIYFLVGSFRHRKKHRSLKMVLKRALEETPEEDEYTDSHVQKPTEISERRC

[1] = test system: WDR neurons in the dorsal horn of the spinal cord; assay: Electrophysiological recording of WDR neurons, spinal topical application; format: in vivo, mouse; settings: for A-latency / A-threshold / C-latency / C-threshold: post-BAM 8-22
Procedure: The electrophysiological recording of WDR neurons in the dorsal horn of the spinal cord was performed by an experimenter blinded to the genotype as previously described in Guan et al., 2006, J. Neurosci., 26:4298-4307. Mice were paralyzed with pancuronium bromide (0.15 mg/kg, i.p.) during neurophysiological recording. Throughout the experiment, anesthesia was maintained with a constant level of isoflurane (1.5%) carried in med-air. A spinal unit with a cutaneous receptive field located in the plantar area of the hind paw was located by applying mechanical stimuli. WDR neurons were defined as those that responded to both innocuous and noxious mechanical stimuli and that had increasing rates of response to increasing intensities of stimuli. Electrical stimuli were applied through a pair of fine needles inserted subcutaneously across the central plantar area of the hind paw 0.3-0.4 cm apart. Extracellular recordings of individual neurons were obtained by using fine-tip (<1.0 μm) paralyn-coated tungsten micro-electrodes ([…] at 1 kHz).
BAM 8-22 or vehicle control was applied directly to the exposed surface of the spinal cord at the recording segment in a volume of 30-50 μl following pre-drug tests. The effects of BAM 8-22 on the spontaneous activity of WDR neurons were examined within 0-10 min after application. The evoked neuronal responses were recorded 10-30 minutes after drug application. Only one neuron in each animal was used to test the drug effects. The post-drug responses were compared with the pre-drug responses, allowing each neuron to act as its own control.
The number of action potentials (APs) evoked by graded electrical stimuli was compared between two genotypes, using a two-way mixed-model analysis of variance (ANOVA) with Fisher's protected least significant difference (LSD) post-hoc test. Student's t-test was used to compare the recording depth, activation threshold and latency of the first A-fiber-mediated and the first C-fiber-mediated responses, respectively, between the two groups. For wind-up, the raw data were the number of APs in the C-component evoked by each stimulus in a train of repetitive electrical stimulation. Since the number of APs in the C-component varies among WDR neurons, the raw data for each neuron were normalized to the first response in each trial (input) and then averaged. A two-way mixed-model ANOVA was used to compare wind-up and the averaged C-component responses to the last 10 stimuli (7th-16th) of the trial between the two genotypes and between pre- and post-drug conditions. Data are presented as mean±standard error of mean (S.E.M). Statistical comparisons were made using unpaired Student's t-test and differences were considered significant at p<0.05.

[2] = Mrgpr-clusterΔ−/− mice, 0.1 mM, 30-50 μl

## BAM 8-22
Rat MrgprC
  activation of rat MrgprC: specifically activates
[1]; Mrgpr-clusterΔ−/− mice
  input value and C-component responses of WDR neurons to 0.5 Hz stimulation: significantly increased
[1]; [2]
  input value and C-component responses of WDR neurons to repetitive (0.5 and 1.0 Hz) stimulation: significantly increased
  wind-up levels (normalized to the input value): not increased
[1]; Mrgpr-clusterΔ−/− mice, n=17, 0.1 mM, intensities >1.0 mA (2.0-5.0 mA)
  C-component responses of WDR neurons to graded electrical stimulation: significantly increased
[1]; Mrgpr-clusterΔ−/−
  A-latency: 12.9 ± 0.6 ms
  A-threshold: 0.19 ± 0.03 mA
  C-latency: 118 ± 4 ms
  C-threshold: 1.9 ± 0.6 mA
[1]; WT WDR neuron, 0.5 Hz, 10-30 min after saline wash-out
  windup response after saline wash-out: partially recovered
[1]; WT mice, n=25, 0.1 mM, 30-50 μl
  wind-up / C-component responses to 0.5 Hz and 1.0 Hz stimulation: significantly attenuated; also recorded: inhibited
[1]; WT mice, n=25, spinal superfusion, 10-30 min after application
  windup of WDR neurons to 0.5 Hz stimulation: significantly attenuated; also recorded: significantly decreased; also recorded: substantially attenuated
[1]; Wild-type
  A-latency: 12.1 ± 0.7 ms
  A-threshold: 0.17 ± 0.03 mA
  C-latency: 115 ± 4 ms
  C-threshold: 1.7 ± 0.4 mA
[1]; either WT or Mrgpr-clusterΔ−/− mice
  threshold and latency of the first C-fiber-mediated action potential: unaffected
